Test results taken from patent EP0024616A1, “1-(3'-Acyloxyphenyl)-2-aminoethanols, their acid addition salts, pharmaceutical compositions containing them and process for their preparation” (Klinge Pharma GmbH, priority 1979, dated 1981).
≈ marks a conversion by molar mass, not a printed value.

Experiment: Minimum solubility in water
Settings: Tab. 1; minimum solubility (lower bound) of the salts in water

**Q.** For `CCCC(=O)Oc1cccc(C(O)CN)c1` (stereo not shown) [Verbindung 3], which “Mindestlöslichkeit in Wasser” value is on record?
**A.** 50%

**Q.** For `CC(C)C(=O)Oc1cccc(C(O)CN)c1` (stereo not shown) [Verbindung 4], which “Mindestlöslichkeit in Wasser” value is on record?
**A.** 50%

**Q.** Which “Mindestlöslichkeit in Wasser” value does the source give for `CC(C)CC(=O)Oc1cccc(C(O)CN)c1` (stereo not shown) [Verbindung 6] here?
**A.** 50%

**Q.** Which “Mindestlöslichkeit in Wasser” value does the source give for `CCCCCC(=O)Oc1cccc(C(O)CN)c1` (stereo not shown) [Verbindung 8] here?
**A.** 50%

**Q.** With `CC(C)CCC(=O)Oc1cccc(C(O)CN)c1` (stereo not shown) [Verbindung 9] as the molecule, how does the “Mindestlöslichkeit in Wasser” value read?
**A.** 50%

**Q.** With `CC(C)(C)CC(=O)Oc1cccc(C(O)CN)c1` (stereo not shown) [Verbindung 11] as the molecule, how does the “Mindestlöslichkeit in Wasser” value read?
**A.** 50%

**Q.** Which “Mindestlöslichkeit in Wasser” value does the source give for `CCCC(CC)(CC)C(=O)Oc1cccc(C(O)CN)c1` (stereo not shown) [Verbindung 13] here?
**A.** 50%

**Q.** With `NCC(O)c1cccc(OC(=O)c2ccccc2)c1` (stereo not shown) [Verbindung 18] as the molecule, how does the “Mindestlöslichkeit in Wasser” value read?
**A.** 50%

Same assay, conditions: water

**Q.** For `CC(=O)NCC(O)c1cccc(O)c1` (stereo not shown) [Verbindung 21, reference compound], which solubility is on record?
**A.** 100000 µg/mL (≈ 512 mM)

**Q.** Which solubility does the source give for `CC(=O)NCC(OC(C)=O)c1cccc(O)c1` (stereo not shown) [Verbindung 22, reference compound] here?
**A.** 12000 µg/mL (≈ 50.6 mM)

**Q.** Which solubility does the source give for `CC(C)(C)C(=O)NCC(O)c1cccc(O)c1` (stereo not shown) [Verbindung 23, reference compound] here?
**A.** 10000 µg/mL (≈ 42.1 mM)

**Q.** With `CC(C)(C)C(=O)NCC(OC(=O)C(C)(C)C)c1cccc(O)c1` (stereo not shown) [Verbindung 24, reference compound] as the molecule, how does the solubility read?
**A.** 100 µg/mL (≈ 0.311 mM)

**Q.** With `CC(C)(C)C(=O)NCC(OC(=O)C(C)(C)C)c1cccc(OC(=O)C(C)(C)C)c1` (stereo not shown) [Verbindung 25, reference compound] as the molecule, how does the solubility read?
**A.** 100 µg/mL (≈ 0.247 mM)
